Values of other authors, collected in US10202620B2, “Synthesis of olefinic alcohols via enzymatic terminal hydroxylation” (PROVIVI, INC., priority 2014, dated 2019).

Key:
[1] = target: T1, CYP52A4 (Candida maltosa, UniProt P16141); settings: terminal hydroxylation, by alkane/FA chain length
T1 sequence (P16141 1-538): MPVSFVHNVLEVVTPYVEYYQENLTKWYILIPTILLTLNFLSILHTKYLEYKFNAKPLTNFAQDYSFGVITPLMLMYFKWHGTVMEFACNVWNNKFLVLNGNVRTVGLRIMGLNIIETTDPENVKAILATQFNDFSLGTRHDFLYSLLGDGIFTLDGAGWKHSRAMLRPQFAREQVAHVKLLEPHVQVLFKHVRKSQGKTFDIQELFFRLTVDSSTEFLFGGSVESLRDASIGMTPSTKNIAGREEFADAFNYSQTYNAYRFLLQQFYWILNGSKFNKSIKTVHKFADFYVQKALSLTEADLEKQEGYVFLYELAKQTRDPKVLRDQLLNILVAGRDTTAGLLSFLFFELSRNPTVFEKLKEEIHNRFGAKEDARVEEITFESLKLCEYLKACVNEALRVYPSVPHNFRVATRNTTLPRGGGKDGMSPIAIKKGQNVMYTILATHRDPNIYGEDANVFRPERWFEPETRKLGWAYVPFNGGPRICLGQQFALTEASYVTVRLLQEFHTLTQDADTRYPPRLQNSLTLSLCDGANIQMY

[2] = system: CYP52A3; settings: terminal hydroxylation, by alkane/FA chain length
[3] = system: CYP52A21
[4] = system: CYP153A16; settings: terminal hydroxylation, by alkane/FA chain length
[5] = system: CYP153A P. sp.; settings: terminal hydroxylation, by alkane/FA chain length
[6] = target: T2, AlkB P. putida GPo1 (Ectopseudomonas oleovorans, UniProt P12691); settings: terminal hydroxylation, by alkane/FA chain length
T2 sequence (P12691 1-401): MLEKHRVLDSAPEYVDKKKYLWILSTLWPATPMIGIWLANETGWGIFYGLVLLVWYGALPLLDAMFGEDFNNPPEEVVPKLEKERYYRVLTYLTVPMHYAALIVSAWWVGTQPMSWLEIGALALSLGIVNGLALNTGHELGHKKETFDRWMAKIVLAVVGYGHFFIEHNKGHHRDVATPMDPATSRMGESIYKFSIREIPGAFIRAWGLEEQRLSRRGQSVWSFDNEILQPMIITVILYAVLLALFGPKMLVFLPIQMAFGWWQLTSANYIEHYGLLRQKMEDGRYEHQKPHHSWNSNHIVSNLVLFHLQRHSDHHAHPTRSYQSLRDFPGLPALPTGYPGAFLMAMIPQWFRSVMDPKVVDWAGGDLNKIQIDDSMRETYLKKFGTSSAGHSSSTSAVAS

[7] = system: alkB2 Gordonia sp TF6; settings: terminal hydroxylation, by alkane/FA chain length; 100% relative activity obtained with hexane
[8] = system: CYP153A6
[9] = target: T3, LadA (Geobacillus thermodenitrificans, UniProt A4IU28); settings: terminal hydroxylation, by alkane/FA chain length
T3 sequence (A4IU28 1-440): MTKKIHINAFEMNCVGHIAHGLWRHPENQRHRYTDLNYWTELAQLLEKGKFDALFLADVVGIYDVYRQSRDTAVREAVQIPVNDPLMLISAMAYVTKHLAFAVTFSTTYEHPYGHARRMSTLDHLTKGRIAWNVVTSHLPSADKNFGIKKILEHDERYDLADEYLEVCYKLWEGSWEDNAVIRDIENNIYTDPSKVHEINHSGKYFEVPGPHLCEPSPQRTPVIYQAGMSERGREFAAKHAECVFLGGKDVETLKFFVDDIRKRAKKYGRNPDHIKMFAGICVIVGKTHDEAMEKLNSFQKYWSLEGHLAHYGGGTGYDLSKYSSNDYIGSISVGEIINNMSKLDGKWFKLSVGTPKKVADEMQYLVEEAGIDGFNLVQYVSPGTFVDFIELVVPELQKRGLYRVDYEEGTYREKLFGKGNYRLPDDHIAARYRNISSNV

Row | SMILES | Relative activity CYP52A4 (Scheller et al., 1996, Arch. Biochem Biophys. 328: 245-254) [1] | Relative activity CYP52A3 (Scheller et al., 1996, Arch. Biochem Biophys. 328: 245-254) [2] | Relative activity CYP153A16 (Scheps et al., 2011, Org. Biomol. Chem. 9: 6727-6733) [4] | Relative activity CYP153A P. sp. (Scheps et al., 2011, Org. Biomol. Chem. 9: 6727-6733) [5] | Relative activity AlkB P. putida GPo1 (Vanbeilen et al., 1994, Enzyme Microb. Technol. 16: 904-911) [6] | Relative activity alkB2 Gordonia sp TF6* (Fujii et al., 2004, Biosci. Biotechnol. Biochem. 68: 2171-2177) [7] | Relative activity CYP153A6 (Funhoff et al., 2006, J. Bacteriol. 188: 5220-5227) [8] | Relative activity LadA (Feng et al., 2007, Proc. Natl. Acad. Sci. U.S.A. 104: 5602-5607) [9] | also measured
1 | CCCCCCCCCCCCCCCC(=O)O [C16 FA] | 18 | 35 |  |  |  |  |  |  | Relative activity CYP52A21 (Kim et al., 2007, Arch. Biochem. Biophys. 464: 213-220) [3]: 29
2 | CCCCCCCCCCCCCCCCCC(=O)O [C18 FA] | 1 | 30 |  |  |  |  |  |  | 
3 | CCCCCCCC [Strain C8] |  |  | 100 | 100 | 95 | 72% | 100 |  | 
4 | CCCCCCCCC [Strain C9] |  |  | 29 | 69 | 100 | 63% | 82 |  | 
5 | CCCCCCCCCC [Strain C10] |  |  | 13 | 60 | 60 | 66% | 23 |  | 
6 | CCCCCCCCCCC [Strain C11] |  |  | <8 | <6 | 6 | 48% | 1 |  | 
7 | CCCCCCCCCCCC [Strain C12] | 37 | 41 |  |  |  | 34% |  |  | 
8 | CCCCCCCCCCCCCCC [Strain C15] |  |  |  |  |  |  |  | 83 | 
9 | CCCCCCCCCCCCCCCC [Strain C16] | 33 | 100 |  |  |  |  |  | 100 | 
10 | CCCCCCCCCCCCCCCCCC [Strain C18] | 20 | 48 |  |  |  |  |  | 78 | 
11 | CCCCCCCCCCCCCCCCCCCCCC [Strain C22] |  |  |  |  |  |  |  | 74 | 
12 | CCCCCCCCCCCCCCCCCCCCCCCC [Strain C24] |  |  |  |  |  |  |  | 65 | 
